Results published in patent US20220339260A1, “METHOD FOR PRODUCING INSULIN-PRODUCING CELL USING DIHYDROINDOLIZINONE DERIVATIVES” (TOKYO INSTITUTE OF TECHNOLOGY, priority 2019, published 2022).

How the values were obtained:
SK7 mouse ES cells = assay: Screening for β cell differentiation enhancer using SK7 mouse ES cells (Pdx1-GFP); assay type: cell-based; conditions: LY411575 alone
Experimental: The SK7 mouse ES cells were differentiated into β cells basically according to the previous report (Nakashima et al., 2015). Briefly, the cells were seeded at 5,000 cells per well in CellBIND 384-well (CORNING, 3770) cell culture plate or at 20,000 cells per well in a 96-well plate (Sigma) coated with 0.2% gelatin. Then, the cells were cultured in medium 1 from days 1 to 5. Medium 1 consisted of DMEM (high glucose) (Life Technologies, 11965092) supplemented with 0.1 mM NEAA (Gibco, 11140-50), 2 mM L-glutamine (Nacalai, 16948-04), 100 U/mL penicillin-streptomycin (Nacalai, 26252-94), 0.01 mM β-mercaptoethanol (Sigma), 1% insulin-transferrin-selenium supplement (ITS: Life Technologies, 41400045), 0.25% Albumax (Thermo Fisher, 11020021), and 10 ng/mL recombinant human activin-A (R&D Systems, 338-AC). Subsequently, the cells were cultured for 1 day in medium 2 which consisted of medium 1 supplemented with 10 μM retinoic acid (Stemgent, 04-0021). On day 6, the medium was replaced with medium 3, and the culture was continued until day 12 in order to induce differentiation into β cells. Medium 3 consisted of DMEM (low glucose) (Life Technologies, 11885084) supplemented with 0.1 mM NEAA, 2 mM L-glutamine, 100 U/mL penicillin-streptomycin, 0.1 mM β-mercaptoethanol, 1% ITS, 0.25% Albumax, and 3 mM nicotinamide (Sigma-Aldrich, N0636-500G). A test compound was added on day 8, and the cells were fixed in 4% paraformaldehyde for analysis using a high-content imager.
A chemical library consisting of about 55,000 compounds was screened for a substance that induced β cell differentiation. […] Fluorescence images were quantified using Operetta high-content imaging system and Harmony image analysis software (PerkinElmer, Germany). The nuclei were identified by DAPI staining, and the positivity of antibody staining was determined from the fluorescence intensity of a cytoplasmic region surrounding the nucleus. The number of cells positive to both insulin and GFP was counted and normalized with the total number of DAPI-positive cells or a positive area. A median of quadruple data was calculated, and screening hits were defined as states in which the number of insulin- and GFP-positive cells was increased as compared with a DMSO control. […] The activity of the selected candidate compounds was further analyzed with Toe human iPS cell assay system in order to select a hit compound having effectiveness for both differentiation into mouse β cells and differentiation into human β cells. A compound was added as described above, and its effectiveness was evaluated from a mRNA expression level by q-PCR in triplet experiments. […]

Ff-I01s01 = assay: Differentiation of Ff-I01s01 iPS cells, sphere culture, protocol #2; assay type: cell-based, human
Experimental: The FfI-01s01 cells were maintained as described above and then differentiated according to protocol #2. Briefly, the cells were dissociated with TrypLE Select, transferred at a concentration of 1×10^6 cells/mL in AK03N medium (Ajinomoto Co., Inc.) to a low-attachment 6-well plate, and cultured for 24 hours on a rotary shaker (95 rpm). Then, the medium was replaced with AK03N-based methionine-depleted medium KA01, and the cells were cultured for 5 hours. Then, the medium was replaced with M1-1 AKM medium, and the cells were cultured for 24 hours (stage 1-1). The cells were cultured for 2 days in M1-2 AKM medium (stage 1-2), subsequently cultured for 2 days in M2 AKM medium (stage 2-1), cultured for 2 days in S2 medium (stage 2-2), cultured for 2 days in S3 medium (stage 3), cultured for 5 days in S4 medium (stage 4), cultured for 4 days in S5-1 medium (stage 5-1), and cultured for 3 days in S5-2 medium (stage 5).
In the case of evaluating the effectiveness of a compound for a differentiation rate and a cell function, a test compound and a negative control ([…]), and immunostaining was carried out on days 14 (at the completion of stage 4) and 21 (at the completion of stage 5) in order to confirm an effect on positivity to insulin, NKX6.1, and PDX1. GSIS assay was carried out on day 21.
Immunocytochemistry was carried out according to a general protocol using the following antibodies: rabbit anti-MAFA (Abcam; ab26405; 1/100×), goat anti-PDX1 (R&D systems; AF2419; 1/100×), mouse anti-NKX6.1 (Developmental Studies Hybridoma Bank, University of Iowa; F64A6B4; 1/100×), guinea pig anti-INSULIN (Dako; IR002; 1/10×), mouse anti-INSULIN (Sigma-Aldrich; 12018; 1/1000×), rabbit anti-C-peptide (Cell Signaling; 4593; 1/100×), rabbit anti-GFP (MBL International Corp; 598; 1/1000×), and mouse anti-GLUCAGON (Sigma-Aldrich; G2654; 1/1000×). […]

[1] = tested on: iPS-β cells (RpChiPSC771); assay: GSIS function assay of iPS-β cells from sphere culture of RPChiPSC771, protocol #1; assay type: cell-based, human; conditions: 1 μM, treatment between stages 3 and 4
Experimental: (§1) The RPChipS771 cells were maintained as described above, and differentiated according to protocol #1. Briefly, on day 0, the cells were dissociated with TrypLE Select, transferred at a concentration of 1×10^6 cells/mL in Essential 8 medium to a low-attachment 6-well plate (Greiner, 657185), and cultured on a rotary shaker (95 rpm). On day 1, the medium was replaced with methionine-depleted medium KA01 (Ajinomoto), and the cells were cultured for 5 hours. The medium was replaced with differentiation medium 1 (DMEM (high glucose), L-Gln, NEAA, 0.01 mM β-mercaptoethanol, 100 ng/mL activin A, B27 supplement, 3 μM CHIR99021), and the cells were cultured for 1 day (stage 1-1). Then, the medium was replaced with medium 1 free from CHIR99021, and the cells were cultured for 2 days (stage 1-2). […]
Batch-mode GSIS assay was carried out as described below. […] The C-peptide concentration of a sample was measured using alphaLISA C-peptide kit (PerkinElmer, AL299F) or C-peptide ELISA and corrected with the DNA content of the cells used in the GSIS assay.

iPS-β cells = assay: Response of iPS-β cells to insulin secretagogues (c-peptide secretion); assay type: cell-based, human; conditions: glibenclamide, exendin 4, and KCl
Experimental: Batch-mode GSIS assay was carried out as described below. An aliquot of the obtained human iPS-β cells was washed with LG-KRBH as described above. Then, the cells were incubated for 30 minutes or 1 hour in LG-HKRB buffer and subsequently incubated for the same time thereas in HG-HKRB buffer. In some experiments, after washing of the cells, the cells were dispensed into some aliquots and incubated for 1 hour in HG-HKRB buffer containing 0.01% DMSO or several types of insulin secretagogues. The C-peptide concentration of a sample was measured using alphaLISA C-peptide kit (PerkinElmer, AL299F) or C-peptide ELISA and corrected with the DNA content of the cells used in the GSIS assay.

Toe human iPS cells = assay: Differentiation of Toe human iPS cells into iPS-β cells, monolayer culture, protocol #1; assay type: cell-based; conditions: treatment from later stage of stage 3 to initial stage of stage 5
Experimental: The Toe human iPS cells were seeded in CellBIND 6-well (CORNING, CLS3335) cell culture plate coated with synthemax II, and differentiated into primitive gut tube cells by the previously described method (Shahjalal et al., 2014). The cells were dissociated with TrypLE Select (Thermo Fisher, 12563011) and cryopreserved in BanBanker (Nippon genetics) at a density of 1.0 to 2.0×10^7 cells/mL until use. One day before compound addition, the cells were thawed in a medium for stage 3 (DMEM (high glucose), 0.25 μM SANT1 (Wako, 197-16351), 0.1 μM LDN193189 (Stemgent, 04-0074), 10 μM SB431542, 2 μM retinoic acid, 1% B27-free serum supplement (Life Technologies, 17504044), and seeded at 150,000 cells per well in CellBIND 96-well (Corning, 3340) cell culture plated coated with synthemax II. The cells were cultured for 1 day in a medium for stage 3 containing a test compound or a negative control (0.01% DMSO). The cells were further cultured for 2 days and 1 day in media for stages 4 and 5, respectively, containing the test compound or the negative control. On the next day, the cells were fixed in 4% paraformaldehyde for analysis using a high-content imager.

RPChiPS771 iPSC = assay: Differentiation of RPChiPS771 iPS cells, sphere culture, protocol #1; assay type: cell-based, human; conditions: 0.25 μM, methionine depletion 5 hours
Experimental: as §1

| Compound | number of Pdx1-GFP+Ins+ double-positive cells (SK7 mouse ES cells) | differentiation depending on time window of addition (Ff-I01s01; added in a time window including stage 3) | differentiation into INSULIN+NKX6.1+, NKX6.1+PDX1+ double-positive and INSULIN+NKX6.1+PDX1+ triple-positive cells (Ff-I01s01; protocol #2, end of stage 4 and later) | production of NKX6.1+ and INSULIN+NKX6.1+ double-positive cells (Ff-I01s01; treatment particularly in stages 3 to 5) | glucose stimulated insulin secretion (GSIS) activity of obtained iPS-β cells [1] | insulin secretion dynamics in step-wise time-course measurement [1] | c-peptide secretion by stimulation with insulin secretagogues (iPS-β cells) | differentiation into iPS-β cells (INS+ cells) (Toe human iPS cells) | differentiation into INSULIN+PDX1+ double-positive cells (RPChiPS771 iPSC) |
| --- | --- | --- | --- | --- | --- | --- | --- | --- | --- |
| C[C@H](NC(=O)[C@@H](O)c1cc(F)cc(F)c1)C(=O)N[C@@H]1C(=O)N(C)c2ccccc2-c2ccccc21 [LY411575, reference compound] | increase |  |  |  |  |  |  |  |  |
| O=C1CCC(C(=O)Nc2ncc(-c3ccc(OC(F)(F)F)cc3)s2)n2cccc21 (stereo not drawn) [Synthesis Example 9, 8-Oxo-N-[5-[4-(trifluoromethoxy)phenyl]thiazol-2-yl]-6,7-dihydro-5H-indolizine-5-carboxamide] |  | enhance differentiation most effectively | enhanced differentiation | promoted the production | enhanced | rapid first-phase insulin secretion and long-lasting second-phase insulin secretion | enhanced c-peptide secretion | stronger efficacy than that of the original compound K-1 | enhanced differentiation |
